Key:
HCMV (TB40-epi) = assay: HCMV infectious particle yield from LNA-transfected ARPE-19 epithelial cells, PFU/ml; format: cell-based; conditions: ARPE-19, PFU/ml; 96 hpi
Protocol: FIG. 26 discloses the effect of HSATII knockdown using four different HSAT-II LNAs on the production of HCMV infectious particles from human retinal pigment cells. Media samples were collected at 96 hpi from ARPE-19 cells transfected with NT-LNA or different HSATII-LNAs 24 h before HCMV (TB40-epi) infection at 1 TCID50/cell. PFU/ml values were determined. Data were averaged from at least three independent experiments and are presented as a mean (SD). Unpaired, two-tailed t-test was used to measure significance. One, two, three or four asterisks represent p<0.05, p<0.01, p<0.001 or p<0.0001, respectively.
Media samples were collected at 96 hpi from ARPE-19 cells transfected with NT-LNA or different HSATII-LNAs 24 h before HCMV (TB40-epi) infection at 1 TCID50/cell. PFU/ml values were determined. Data were averaged from at least three independent experiments and are presented as a mean (SD). […] Cells treated with the combined HSATII-LNA #1 and HSATII-LNA #2 produced only ˜0.6% of intracellular and ˜1% extracellular HCMV viral particles produced by control cells treated with NT-LNA. To compare, cells treated with HSATII-LNA #1 produced ˜33% of intracellular and ˜6% of extracellular HCMV viral particles produced by control cells treated with NT-LNA. Cells treated with HSATII-LNA #2 produced 23% of intracellular and 6% of extracellular HCMV viral particles produced by control cells treated with NT-LNA. Unpaired, two-tailed t-test was used to measure significance. One, two, three or four asterisks represent p<0.05, p<0.01, p<0.001 or p<0.0001, respectively.
Locked nucleic acid oligonucleotides were designed to target identified, highly abundant HSATII transcripts from different chromosomal loci. […] Cells were collected at the indicated time post infection using QIAzol buffer (QIAGEN, Hilden, Germany) and stored at −80° C. until sample processing.

HSATII = HSATII RNA RT-qPCR in HCMV-infected HFFs treated with CHX or GCV; format: cell-based, human; conditions: for HSATII levels: HFFs, HCMV 1 TCID50/cell, GCV added after 2 h
Protocol: FIGS. 2a-d disclose HSATII induction levels in cells infected with active virus as compared to UV-irradiated virus. a HFFs were infected with untreated or UV-irradiated HCMV (TB40/E-GFP) at 3 TCID50/cell, RNA samples were collected at specified times. b HFFs were treated with CHX or DMSO, as a solvent control, 24 h before HCMV (TB40/E-GFP) infection at 1 TCID50/cell. RNA samples were collected at 24 hpi. c HFFs were infected with HCMV (TB40/E-GFP) at 1 TCID50/cell for 2 h and then media was changed for one containing GCV or DMSO as a solvent control. RNA samples were collected at 24 and 48 hpi. d Tetracycline-inducible […] and/or IE2 MRC-5 and ARPE-19 cells were treated with doxycycline. RNA samples were collected at indicated times. a-d RT-qPCR was performed using HSATII-specific primers. GAPDH was used as an internal control. n=3. Data are presented as a fold change mean±SD. a-c ***P<0.001, ****P<0.0001 by the unpaired, two-tailed t-test with (b, c) or without (a) Welch's correction. ns—not significant. Open circles represent single data points.
(§1) Cyclohexamide (Sigma-Aldrich) and ganciclovir (Sigma-Aldrich) were dissolved in DMSO and used at 100 μg ml^−1 or 50 1.1M concentrations, respectively. Doxycycline (Sigma-Aldrich) was dissolved in water and used at 2 μg ml^−1. Puromycin was dissolved in water and used at 1.5 1.1 g ml^−1 (MRC-5) or 21.1 g ml^−1 (ARPE-19). G418 was dissolved in water and used at 800 μg ml-1 (MRC-5) or 1 mg ml-1 G418 (ARPE-19).
(§2) For quantitative reverse transcription PCR (qRT-PCR) analysis, cells were collected in QIAzol Lysis Reagent (Qiagen). To fractionate RNA, DNA and proteins chloroform was added; samples were spun at 12,000×g for 15 min. at 4° C. […] Quantitative PCR (qPCR) was performed using SYBR Green master mix (Applied Biosystems by Thermo Fisher Scientific, Foster City, Calif.) on the QuantStudio 6 Flex-Real Time PCR System (Applied Biosystems by Thermo Fisher Scientific). […]
(§3) Transcript levels were analyzed using the […] method and GAPDH or B2M were used as an internal control. […]

UL99 = UL99 late gene RNA RT-qPCR in HCMV-infected HFFs treated with GCV; format: cell-based; conditions: HCMV 1 TCID50/cell, 48 hpi
Protocol: FIG. 12 discloses the accumulation of UL99 gene RNA in the presence of DMSO or GCV in infected cells. HFFs were infected with HCMV (TB40/E-GFP; 1 TCID50/cell) for 2 h and then media was changed for one containing GCV or DMSO as a solvent control. RNA samples were collected at 48 hpi. RT-qPCR was performed using UL99-specific primers. GAPDH was used as an internal control. Data were averaged from at least three experiments and are presented as a fold change mean (SD).
as §1
as §2, with “(Qiagen).” for “(Qiagen). To fractionate RNA, DNA and proteins chloroform was added; samples were spun at 12,000×g for 15 min. at 4° C.”
as §3

| Molecule | extracellular HCMV viral particles, % of those produced by control cells treated with NT-LNA (HCMV (TB40-epi)) | intracellular HCMV viral particles, % of those produced by control cells treated with NT-LNA (HCMV (TB40-epi)) | other results |
| --- | --- | --- | --- |
| HSATII-LNA #1: locked nucleic acid oligonucleotide targeting HSATII transcripts, 5′-CCATTCGATAATTCCG-3′ (locked nucleic acid oligonucleotide, LNA positions and linkages not given here) | ~6% | ~33% |  |
| Nc1nc(O)c2ncn(COC(CO)CO)c2n1 [ganciclovir] |  |  | HSATII levels (HSATII; 24 hpi): did not change; HSATII levels (HSATII; 48 hpi): did not change; accumulation of RNA from the late UL99 gene (UL99): blocked |
| C[C@@H]1C[C@@H]([C@H](O)CC2CC(=O)NC(=O)C2)C(=O)[C@@H](C)C1 [Cycloheximide] |  |  | reduction of HSATII accumulation compared to solvent control (HSATII; HFFs treated with CHX 24 h before HCMV (TB40/E-GFP) infection at 1 TCID50/cell, 24 hpi): 33 fold |
| HSATII-LNA #2: locked nucleic acid oligonucleotide targeting HSATII transcripts, 5′-GATTCCATTCGATGAT-3′ (locked nucleic acid oligonucleotide, LNA positions and linkages not given here) | 6% | 23% |  |

Source: patent publication US20220204971A1, “Compositions and Methods for Inhibiting Cancers and Viruses” (Icahn School of Medicine at Mount Sinai, priority 2018, published 2022)
